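These data come from cells grown in 96-well plates and exposed to compound for 48 hours at five concentrations. Here, GI50 denotes the concentration required for 50% inhibition of growth.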 Activity calls are given as the source filed them. No stated cut-off is given here; in the data, active = GI50 up to about 1.1 µM and inactive = higher.
Assays:
Test in all cases: inhibition of tumour cell growth, NCI panel, 48 h
[1] = system: 786-0
[2] = system: BT-549
[3] = system: CAKI-1
[4] = system: CCRF-CEM
[5] = system: HCT-15
[6] = system: HOP-92
[7] = system: M14
[8] = system: MCF7
[9] = system: MDA-MB-231
[10] = system: MDA-MB-435
[11] = system: Malme-3M
[12] = system: NCI-H460
[13] = system: OVCAR-3
[14] = system: OVCAR-8
[15] = system: PC-3
[16] = system: SF-268
[17] = system: SF-539
[18] = system: SK-MEL-28
[19] = system: SN12C
[20] = system: UO-31

SMILES | GI50 [1] | GI50 [2] | GI50 [3] | GI50 [4] | GI50 [5] [µM] | GI50 [6] | GI50 [7] | GI50 [8] | GI50 [9] | GI50 [10] | GI50 [11] | GI50 [12] | GI50 [13] | GI50 [14] | GI50 [15] | GI50 [16] | GI50 [17] | GI50 [18] | GI50 [19] | GI50 [20]
O=C1CN2C(c3ccccc3)=NN(c3ccc([N+](=O)[O-])cc3)C2(c2ccccc2)c2cc(Cl)ccc2N1CC1CC1 (stereo not given) | > 100 µM (inactive) | > 100 µM (inactive) | > 100 µM (inactive) | > 100 µM (inactive) | > 100 | > 100 µM (inactive) | > 100 µM (inactive) | > 100 µM (inactive) | > 100 µM (inactive) | > 100 µM (inactive) | > 100 µM (inactive) | > 100 µM (inactive) | > 100 µM (inactive) | > 100 µM (inactive) | 7.6 µM (inactive) | > 100 µM (inactive) | > 100 µM (inactive) | > 100 µM (inactive) | > 100 µM (inactive) | > 100 µM (inactive)
O=C(O)[C@H]1NC[C@@H]2ON=C(Br)[C@@H]21 | > 100 µM (inactive) | > 100 µM (inactive) | > 100 µM (inactive) | > 100 µM (inactive) | > 100 | > 100 µM (inactive) | > 100 µM (inactive) | > 100 µM (inactive) | > 100 µM (inactive) | > 100 µM (inactive) | > 100 µM (inactive) | > 100 µM (inactive) | > 100 µM (inactive) | > 100 µM (inactive) | > 100 µM (inactive) | > 100 µM (inactive) | > 100 µM (inactive) | > 100 µM (inactive) | > 100 µM (inactive) | > 100 µM (inactive)
CN1CCN(CCCCNc2cc3c4ccccc4c(NCCCCN4CCN(C)CC4)cc3c3ccccc23)CC1 | 1.63 µM (inactive) | 5.89 µM (inactive) | 9.77 µM (inactive) | 0.703 µM (active) | 1.34 | 6.61 µM (inactive) | 0.895 µM (active) | 1.34 µM (inactive) | 1.62 µM (inactive) | 0.184 µM (active) | 2.15 µM (inactive) | 1.53 µM (inactive) | 2.98 µM (inactive) | 1.88 µM (inactive) | 3.31 µM (inactive) | 1.9 µM (inactive) | 1.94 µM (inactive) | 7.67 µM (inactive) | 2.61 µM (inactive) | 2.69 µM (inactive)
COc1ccccc1N1C(=O)CS(=O)(=O)C1c1cccc(Oc2ccccc2)c1 (stereo not given) | 18.3 µM (inactive) | 16.9 µM (inactive) | 19.9 µM (inactive) | 25.8 µM (inactive) | 12.1 | 10.8 µM (inactive) | 16.6 µM (inactive) | 6.21 µM (inactive) | 15.5 µM (inactive) | 4.26 µM (inactive) | 15 µM (inactive) | 15.2 µM (inactive) | 18.7 µM (inactive) | 16.5 µM (inactive) | 12.2 µM (inactive) | 15.8 µM (inactive) | 16 µM (inactive) | 17.5 µM (inactive) | 17.1 µM (inactive) | 19.9 µM (inactive)
Clc1nc2c(N3CCCC3)nc(N3CCNCC3)nc2[nH]1 | 17.8 µM (inactive) | 29.4 µM (inactive) | 39 µM (inactive) | 19.4 µM (inactive) | 18.9 | 16.6 µM (inactive) | 19.7 µM (inactive) | 17.7 µM (inactive) | 16.4 µM (inactive) | 18.7 µM (inactive) | 20.7 µM (inactive) | 17.6 µM (inactive) | 18 µM (inactive) | 16 µM (inactive) | 17.8 µM (inactive) | 19.2 µM (inactive) | 18.4 µM (inactive) | 22.3 µM (inactive) | 18.6 µM (inactive) | 15.7 µM (inactive)
COC(=O)C1C(O)CCC2CN3CCc4c([nH]c5cccc(OC)c45)C3CC21 (stereo not given) | > 100 µM (inactive) | > 100 µM (inactive) | > 100 µM (inactive) | > 100 µM (inactive) | > 100 | > 100 µM (inactive) | > 100 µM (inactive) | > 100 µM (inactive) | > 100 µM (inactive) | > 100 µM (inactive) | > 100 µM (inactive) | > 100 µM (inactive) | > 100 µM (inactive) | > 100 µM (inactive) | > 100 µM (inactive) | > 100 µM (inactive) | > 100 µM (inactive) | > 100 µM (inactive) | > 100 µM (inactive) | 76 µM (inactive)
CC(C)OC(=O)c1ccc(NCC2=CC(=O)C=CC2=O)cc1 | 13 µM (inactive) | 12.9 µM (inactive) | 3.43 µM (inactive) | 2.21 µM (inactive) | 12.7 | 2.48 µM (inactive) | 14.5 µM (inactive) | 12.4 µM (inactive) | 10.2 µM (inactive) | 13.6 µM (inactive) | 8.97 µM (inactive) | 36.3 µM (inactive) | 6.19 µM (inactive) | 15.3 µM (inactive) | 13.1 µM (inactive) | 12.3 µM (inactive) | 7.45 µM (inactive) | 18.3 µM (inactive) | 12.9 µM (inactive) | 9.91 µM (inactive)
